Reference: PMC6199744, “Development of Chemical Proteomics for the Folateome and Analysis of the Kinetoplastid Folateome” (ACS Infectious Diseases, 2018)
Like-named read-outs stand apart in the source and are kept apart here.

Key:
Type in all cases: binding
[1] = target: T1, HeLa cell extract proteins (Homo sapiens, UniProt P05166)
T1 construct: endogenous in cells; host or cells: HeLa cell extract
T1 sequence (P05166 29-539): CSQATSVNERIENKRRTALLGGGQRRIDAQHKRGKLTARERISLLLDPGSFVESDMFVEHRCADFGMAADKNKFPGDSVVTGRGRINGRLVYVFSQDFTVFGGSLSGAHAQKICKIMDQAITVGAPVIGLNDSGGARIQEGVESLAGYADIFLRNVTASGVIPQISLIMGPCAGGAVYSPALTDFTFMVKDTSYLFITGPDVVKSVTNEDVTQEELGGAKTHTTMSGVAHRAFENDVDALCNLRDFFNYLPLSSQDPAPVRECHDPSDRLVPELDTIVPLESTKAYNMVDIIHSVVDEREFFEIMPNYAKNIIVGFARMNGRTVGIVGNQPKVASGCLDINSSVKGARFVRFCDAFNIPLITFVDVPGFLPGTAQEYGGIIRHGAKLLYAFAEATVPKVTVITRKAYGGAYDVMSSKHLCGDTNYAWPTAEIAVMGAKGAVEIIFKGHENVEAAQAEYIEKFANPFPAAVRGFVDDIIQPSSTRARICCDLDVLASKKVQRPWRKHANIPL

[2] = target: T2, HeLa cell extract proteins (Homo sapiens, UniProt P06753)
T2 construct: endogenous in cells; host or cells: HeLa cell extract
T2 sequence (P06753 whole entry): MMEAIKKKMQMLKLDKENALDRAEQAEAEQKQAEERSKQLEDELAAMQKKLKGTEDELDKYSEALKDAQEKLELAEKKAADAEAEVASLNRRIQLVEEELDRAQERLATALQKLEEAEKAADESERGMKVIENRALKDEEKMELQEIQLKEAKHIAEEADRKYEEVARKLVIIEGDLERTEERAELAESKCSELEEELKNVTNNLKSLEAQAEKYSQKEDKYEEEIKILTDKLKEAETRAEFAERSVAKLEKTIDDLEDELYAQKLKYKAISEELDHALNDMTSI

[3] = target: T3, HeLa cell extract proteins (Homo sapiens, UniProt P04183)
T3 construct: endogenous in cells; host or cells: HeLa cell extract
T3 sequence (P04183 1-234): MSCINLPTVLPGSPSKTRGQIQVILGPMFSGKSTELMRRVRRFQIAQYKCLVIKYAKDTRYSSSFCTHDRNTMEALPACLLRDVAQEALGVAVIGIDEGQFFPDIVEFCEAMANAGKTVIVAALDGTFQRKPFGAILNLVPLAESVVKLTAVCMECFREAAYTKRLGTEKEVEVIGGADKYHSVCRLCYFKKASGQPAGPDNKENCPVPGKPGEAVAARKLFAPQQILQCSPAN

[4] = target: T4, HeLa cell extract proteins (Homo sapiens, UniProt Q08209)
T4 construct: endogenous in cells; host or cells: HeLa cell extract

[5] = target: T5, HeLa cell extract proteins (Homo sapiens, UniProt Q15436)
T5 construct: endogenous in cells; host or cells: HeLa cell extract
T5 sequence (Q15436 whole entry): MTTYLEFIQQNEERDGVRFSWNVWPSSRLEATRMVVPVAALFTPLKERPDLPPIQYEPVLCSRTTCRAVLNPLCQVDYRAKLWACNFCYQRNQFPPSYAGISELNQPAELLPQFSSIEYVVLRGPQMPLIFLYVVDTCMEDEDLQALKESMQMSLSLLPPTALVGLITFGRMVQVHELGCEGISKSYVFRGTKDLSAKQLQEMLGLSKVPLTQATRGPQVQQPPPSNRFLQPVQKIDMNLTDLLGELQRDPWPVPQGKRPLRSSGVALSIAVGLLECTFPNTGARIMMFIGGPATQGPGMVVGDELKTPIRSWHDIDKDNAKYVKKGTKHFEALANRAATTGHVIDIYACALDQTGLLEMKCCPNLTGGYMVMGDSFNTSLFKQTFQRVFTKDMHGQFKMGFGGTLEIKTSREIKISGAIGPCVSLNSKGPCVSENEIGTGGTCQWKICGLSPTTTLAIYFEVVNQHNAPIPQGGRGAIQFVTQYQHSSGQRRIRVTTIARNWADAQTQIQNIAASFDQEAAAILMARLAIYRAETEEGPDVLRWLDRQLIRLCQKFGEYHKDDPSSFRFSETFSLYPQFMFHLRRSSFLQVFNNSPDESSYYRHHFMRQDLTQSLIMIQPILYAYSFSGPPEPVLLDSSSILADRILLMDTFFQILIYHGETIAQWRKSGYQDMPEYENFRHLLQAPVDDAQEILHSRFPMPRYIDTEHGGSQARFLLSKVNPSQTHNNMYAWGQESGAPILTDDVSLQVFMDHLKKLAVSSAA

[6] = target: T6, HeLa cell extract proteins (Homo sapiens, UniProt P30041)
T6 construct: endogenous in cells; host or cells: HeLa cell extract
T6 sequence (P30041 1-224): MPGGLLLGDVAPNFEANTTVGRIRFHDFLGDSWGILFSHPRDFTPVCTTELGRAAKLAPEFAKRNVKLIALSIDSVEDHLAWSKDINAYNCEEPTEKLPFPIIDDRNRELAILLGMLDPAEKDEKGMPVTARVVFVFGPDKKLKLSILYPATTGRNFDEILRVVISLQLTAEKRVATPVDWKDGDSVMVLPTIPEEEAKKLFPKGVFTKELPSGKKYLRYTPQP

[7] = target: T7, HeLa cell extract proteins (Homo sapiens, UniProt O43809)
T7 construct: endogenous in cells; host or cells: HeLa cell extract
T7 sequence (O43809 whole entry): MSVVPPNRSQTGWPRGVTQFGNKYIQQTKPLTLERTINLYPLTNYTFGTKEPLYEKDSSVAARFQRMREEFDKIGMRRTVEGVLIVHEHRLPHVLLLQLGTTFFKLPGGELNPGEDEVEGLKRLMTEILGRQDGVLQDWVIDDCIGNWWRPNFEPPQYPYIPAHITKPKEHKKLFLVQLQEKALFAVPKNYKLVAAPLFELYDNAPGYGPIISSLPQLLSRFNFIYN

[8] = target: T8, HeLa cell extract proteins (Homo sapiens, UniProt P04040)
T8 construct: endogenous in cells; host or cells: HeLa cell extract
T8 sequence (P04040 1-527): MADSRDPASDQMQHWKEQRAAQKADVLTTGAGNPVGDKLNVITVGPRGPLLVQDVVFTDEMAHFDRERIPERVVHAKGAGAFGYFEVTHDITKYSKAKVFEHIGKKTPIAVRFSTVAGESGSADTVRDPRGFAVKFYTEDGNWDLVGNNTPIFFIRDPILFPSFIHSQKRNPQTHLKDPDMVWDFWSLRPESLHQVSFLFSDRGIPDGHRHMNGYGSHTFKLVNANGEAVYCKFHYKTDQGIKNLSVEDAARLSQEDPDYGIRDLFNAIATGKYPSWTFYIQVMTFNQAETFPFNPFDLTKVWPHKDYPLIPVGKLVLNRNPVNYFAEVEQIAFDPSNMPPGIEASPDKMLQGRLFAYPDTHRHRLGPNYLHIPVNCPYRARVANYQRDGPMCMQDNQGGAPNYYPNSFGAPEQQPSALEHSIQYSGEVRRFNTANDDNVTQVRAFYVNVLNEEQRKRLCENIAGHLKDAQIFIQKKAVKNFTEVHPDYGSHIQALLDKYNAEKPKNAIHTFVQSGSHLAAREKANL

[9] = target: T9, HeLa cell extract proteins (Homo sapiens, UniProt P30740)
T9 construct: endogenous in cells; host or cells: HeLa cell extract
T9 sequence (P30740 1-379): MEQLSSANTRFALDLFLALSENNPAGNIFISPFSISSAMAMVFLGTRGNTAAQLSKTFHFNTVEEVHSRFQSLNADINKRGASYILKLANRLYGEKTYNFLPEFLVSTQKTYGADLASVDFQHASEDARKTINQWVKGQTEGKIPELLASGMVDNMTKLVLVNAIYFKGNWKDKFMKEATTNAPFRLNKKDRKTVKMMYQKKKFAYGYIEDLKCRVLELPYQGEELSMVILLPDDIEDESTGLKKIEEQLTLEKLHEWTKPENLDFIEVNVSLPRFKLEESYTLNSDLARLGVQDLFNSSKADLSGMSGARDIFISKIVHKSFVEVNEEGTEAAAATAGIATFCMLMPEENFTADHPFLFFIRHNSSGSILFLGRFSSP

[10] = target: T10, HeLa cell extract proteins (Homo sapiens, UniProt P38646)
T10 construct: endogenous in cells; host or cells: HeLa cell extract
T10 sequence (P38646 47-679): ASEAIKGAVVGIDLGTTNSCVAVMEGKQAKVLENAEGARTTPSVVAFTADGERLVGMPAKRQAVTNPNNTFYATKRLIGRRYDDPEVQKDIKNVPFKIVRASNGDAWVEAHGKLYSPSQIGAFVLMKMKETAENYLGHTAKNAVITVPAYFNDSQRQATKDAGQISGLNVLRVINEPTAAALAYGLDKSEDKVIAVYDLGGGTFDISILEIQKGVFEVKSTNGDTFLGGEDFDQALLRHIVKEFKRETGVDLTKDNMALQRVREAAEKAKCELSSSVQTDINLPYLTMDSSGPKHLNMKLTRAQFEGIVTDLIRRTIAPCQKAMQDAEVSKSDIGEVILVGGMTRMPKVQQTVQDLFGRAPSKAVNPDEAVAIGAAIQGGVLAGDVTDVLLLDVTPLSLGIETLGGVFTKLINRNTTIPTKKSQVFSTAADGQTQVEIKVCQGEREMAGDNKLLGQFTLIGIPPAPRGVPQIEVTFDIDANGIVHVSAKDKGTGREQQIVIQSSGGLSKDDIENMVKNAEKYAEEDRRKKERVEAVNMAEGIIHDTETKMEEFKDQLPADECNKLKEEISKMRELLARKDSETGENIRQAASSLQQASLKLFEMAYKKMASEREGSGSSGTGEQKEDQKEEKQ

[11] = target: T11, HeLa cell extract proteins (Homo sapiens, UniProt P23381)
T11 construct: endogenous in cells; host or cells: HeLa cell extract
T11 sequence (P23381 1-471): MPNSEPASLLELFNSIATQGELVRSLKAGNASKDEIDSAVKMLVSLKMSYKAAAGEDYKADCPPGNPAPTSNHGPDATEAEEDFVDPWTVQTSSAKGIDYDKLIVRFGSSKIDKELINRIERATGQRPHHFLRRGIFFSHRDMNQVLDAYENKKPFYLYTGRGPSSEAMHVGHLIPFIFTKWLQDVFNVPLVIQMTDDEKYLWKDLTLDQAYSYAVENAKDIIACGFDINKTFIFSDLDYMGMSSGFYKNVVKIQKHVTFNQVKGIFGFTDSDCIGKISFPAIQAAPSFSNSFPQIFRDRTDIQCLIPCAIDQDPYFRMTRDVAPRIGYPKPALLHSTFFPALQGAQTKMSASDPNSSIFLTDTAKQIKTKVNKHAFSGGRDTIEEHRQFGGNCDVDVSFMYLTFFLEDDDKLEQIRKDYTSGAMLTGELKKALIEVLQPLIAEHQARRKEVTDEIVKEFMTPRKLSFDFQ

[12] = HeLa, protein TK1 (29 KDA PROTEIN)
[13] = HeLa, protein PRDX6 (PEROXIREDOXIN-6.)

SMILES | fold changes relative to vehicle control ([1]; HeLa, protein PCCB) | fold changes relative to vehicle control ([2]; protein TPM3, HeLa) | fold changes relative to vehicle control [3, 12] | fold changes relative to vehicle control ([4]; HeLa, protein PPP3CA) | fold changes relative to vehicle control ([5]; HeLa, protein SEC23A) | fold changes relative to vehicle control ([6]; HeLa, protein PRDX6) | fold changes relative to vehicle control ([7]; protein NUDT21, HeLa) | fold changes relative to vehicle control ([8]; protein CAT, HeLa) | fold changes relative to vehicle control ([9]; HeLa, protein SERPINB1) | fold changes relative to vehicle control ([10]; HeLa, captured protein HSPA9) | fold changes relative to vehicle control ([11]; protein WARS, HeLa) | fold changes relative to vehicle control ([1]; captured protein PCCB, HeLa) | fold changes relative to vehicle control ([3]; protein TK1, HeLa) | fold changes relative to vehicle control [6, 13] [fold] | fold changes relative to vehicle control ([8]; captured protein CAT, HeLa) | fold changes relative to vehicle control ([9]; protein SERPINB1, HeLa) | fold changes relative to vehicle control ([10]; protein HSPA9, HeLa) | other results
Nc1nc2c(c(=O)[nH]1)N(C=O)C(CNc1ccc(C(=O)N[C@@H](CCC(=O)O)C(=O)O)cc1)CN2 (some centres unmarked) [LEU, leucovorin] | 0.97 | 0.93 | 0.97 | 0.97 | 0.94 | 1.05 | 1.11 | 0.87 | 0.98 | 1.05 | 0.95 |  |  |  |  |  |  | 
NCCCNc1ccc(C(=O)NC(CCC(=O)O)C(=O)O)cc1 (centres unmarked) [compound 7] | 1.17 | 1.1 | 1.12 | 0.85 | 1.1 | 1.01 | 0.98 | 1.39 | 0.99 | 0.97 | 0.98 |  |  |  |  |  |  | 
CCCCCCOc1cccc(Cc2cnc(N)nc2N)c1 [compound 2] |  | 2.05 |  | 1.13 | 1.07 |  | 1.28 |  |  |  | 1.71 | 0.92 | 1.16 | 2.27 | 1.03 | 1.28 | 1.1 | 
CCCCCCOc1ccc(Cc2cnc(N)nc2N)cc1 [compound 1] |  | 1.18 |  | 1.1 | 1.1 |  | 1.16 |  |  |  | 0.96 | 0.99 | 0.96 | 1.45 | 0.77 | 1.07 | 0.95 | 
Nc1nc2cccc(-c3ccccc3)c2n1Cc1ccc(Cl)c(Cl)c1 [compound 3] |  | 0.87 |  | 1.03 | 1.04 |  | 0.99 |  |  |  | 0.9 | 1 | 1.16 | 0.92 | 0.78 | 0.98 | 0.98 | 
NCCOCCOCC(=O)Nc1nc2ncc(CNc3ccc(C(=O)NC(CCC(=O)O)C(=O)O)cc3)nc2c(=O)[nH]1 (centres unmarked) [compound 6] | 0.91 | 1.18 | 1.06 | 0.95 | 0.89 | 1.33 | 1 | 0.94 | 1.09 | 0.99 | 1.19 |  |  |  |  |  |  | 
Nc1nc2[nH]cc(CCc3ccc(C(=O)N[C@@H](CCC(=O)O)C(=O)O)cc3)c2c(=O)[nH]1 [PTX, pemetrexed] |  |  |  |  |  |  |  |  |  |  |  |  |  |  |  |  |  | fold changes relative to vehicle control [1]: 0.22; fold changes relative to vehicle control [2]: 0.89; fold changes relative to vehicle control [3]: 0.93; fold changes relative to vehicle control [4]: 0.91; fold changes relative to vehicle control [5]: 0.94; fold changes relative to vehicle control [6]: 1.21; fold changes relative to vehicle control [7]: 0.97; fold changes relative to vehicle control [8]: 0.88; fold changes relative to vehicle control [9]: 1.06; fold changes relative to vehicle control [10]: 0.97; fold changes relative to vehicle control [11]: 1.02
